Experiment in all cases: Drug sensitivity of breast cancer cell line to lapatinib
Common to all, as to assay type: cell-based, human

The subject of assay [1] is BT474. The following applies: BT474, ERBB2 amplified.
Description: (§1) To complement this functional viability profiling, we also characterised the breast tumor panel using transcript microarrays, array-based comparative genomic hybridisation (aCGH), drug sensitivity for a small number of targeted agents, as well as gene mutation data.
Assay [2] has as its system JIMT1. The note with it: JIMT1, ERBB2 amplified.
Description: as §1
Assay [3] relates to MDAMB453. The following applies: MDAMB453, ERBB2 amplified.
Description: as §1
Assay [4] relates to HCC202. The following applies: HCC202, ERBB2 amplified.
Description: as §1
For assay [5], the system named is VP229. The following applies: VP229, ERBB2 amplified.
Description: as §1
Assay [6] concerns SKBR3. The note with it: SKBR3, ERBB2 amplified.
Description: as §1

As to `CS(=O)(=O)CCNCc1ccc(-c2ccc3ncnc(Nc4ccc(OCc5cccc(F)c5)c(Cl)c4)c3c2)o1` [lapatinib], the “sensitivity to lapatinib treatment” value in assay [1] was “sensitive”; in assay [2] it was “resistant”; in assay [3], “resistant”; in assay [4], “sensitive”; in assay [5], “resistant”; in assay [6], “sensitive”.

The values are drawn from patent publication US20140378525A1, “MATERIALS AND METHODS FOR TREATING PTEN MUTATED OR DEFICIENT CANCER” (priority 2011, published 2014).
